Reference: patent publication US20040202647A1, “Compositions and methods related to nitrotyrosine - containing compounds as antigenic agents” (priority 2002, published 2004)
Like-named read-outs stand apart in the source and are kept apart here.

Tested on: splenocytes from naïve C57BI/6 mice
Format: cell-based
Conditions: naïve splenocytes plus RMA-S pulsed with 10 uM peptide, IL-2 added after 4 days

“KAVYNFATM [non-nitrated LCMV gp33 peptide]” was tested, and the “outgrowth of CD8^+ T cells” value was “not” and the “outgrowth of CD8^+ T cells” value (listed as conventional gp33-41 peptide) was “not observed”.
